Data as given in patent US12158464B2, “Methods for modeling disease tissue using three-dimensional tissue systems” (priority 2013, dated 2024).

Key:
hESC-CM biowires (Hes2) [1] = assay type: cell-based, human
Protocol: After preculture for 7 days, biowires were randomly transferred to 6-well plates and cultured in StemPro-34 media in the absence or presence of Isoproterenol (100 nM), Angiotensin II (200 nM [17]) or Endothelin-1 (150 nM)(Sigma) for 7 days. This protocol was chosen to replicate the chronic treatment of mice as described. […] Isolated single cells were seeded on Matrigel-coated glass cover slips before cell area and calcium transient measurements were performed. Immunostaining and Fluorescence Microscopy. Immunostaining was performed using the following antibodies: mouse anti-cTNT (1:100, Thermo Scientific; MS-295-P1), mouse anti-α-actinin (1:200, Abcam, ab9465), anti-mouse-Alexa Fluor 488 (1:400, Invitrogen, A21202), anti-rabbit-TRITC (1:400, Invitrogen, 81-6114). DAPI was used to counterstain nuclei. Phalloidin Alexa Fluor 660 (1:1000, Invitrogen, A22285) was used to detect actin fibers. The stained cells were visualized using a fluorescence microscope (Leica CTR6000) and images captured using the Leica Application Suite software. For confocal microscopy cells were visualized using a fluorescence confocal microscope (Zeiss LSM-510). Transmission Electron Microscopy (TEM). Tissue was fixed with 4% Paraformaldehyde, 1% Glutaraldehyde in 0.1 M PBS for at least 1 hr and washed 3 times with PBS pH 7.2. Post-fixation was done with 1% Osmium Tetraoxide in 0.1 M PBS, pH 7.2 for 1 hr and dehydrated using ethanol series from 25 to 100%. Tissue was infiltrated using Epon resin and polymerized in plastic dishes at 40° C. for 48 hr. Tissue was stained with Uranyl Acetate and Lead Citrate after sectioning. Imaging was performed at Hitachi H-7000 transmission electron microscope.

[2] = tested on: hESC-derived CMs 3D tissues; assay type: cell-based, human
Protocol: Alternatively, to measure the force generated by the 3D engineered cardiac tissues, a bioreactor consisting of a PDMS tissue chamber capable of housing 8 micotissues was employed. […] Briefly, each well of the PDMS chamber had two posts which served as anchoring points for each cardiac tissue during gel compaction. Furthermore, by tracking a post's deflection, the force of contraction a cardiac tissue generated was determined. Cardiac tissues underwent 7 days of pre-culture followed by 7 days of treatment with endothelin-1, angiotensin II or isoproterenol. After the treatment, the contractile force of each cardiac tissue was determined by video recording, one at a time, the top surface of a post for each cardiac tissue while being paced at 0.5 or 1 Hz using CellSens software (Olympus). Each video was then exported as a series of Tiff images and opened in ImageJ. […] Using the method of superposition for a cantilever beam-partial uniform deflection, a point force was calculated and then normalized to the tissues cross sectional area (assumed circular) to determine the cardiac force per area.

[3] = tested on: human cardiac tissue strands (hESC, Hes2 derived cardiomyocytes); assay: Biorod drug testing: tissue beating pattern and contractile force by polymer wire deflection; assay type: cell-based; conditions: for response of human cardiac tissues to well-known drugs: summary statement
Protocol: Cardiomyocytes were derived from human embryonic stem cell lines (hESC, Hes2). Embryoid bodies (EBs) were differentiated to the cardiovascular lineage and disassociated as previously described in Device 1 Methods. Before cell seeding, micro-well surface was rinsed with 5% (w/v) Pluronic Acid (Sigma P2443) and then air dried in the bio-safety cabinet. hESC derived cardiomyocytes were suspended at 200 million/ml (unless specified otherwise) in Collagen Type I based gel (3.0 mg/ml of rat tail collagen type I (BD Biosciences) neutralized by 1N NaOH and 10×M199 media as described by the manufacturer) with the supplements of […], 1% (v/v) HEPES, 10% (v/v) Matrigel (BD Biosciences), and […]. Suspended cardiomyocytes were then seeded into the cell culture channel (2.5 μl per well). After 30 min incubation at 37° C. to induce the gelation, appropriate media were added. After seeding, cells were kept in culture for 7 days to allow collagen matrix remodeling and assembly around the wires. Cardiac tissue strands were kept in culture for up to 21 days with media change every 2-3 days. Preferably, the tissue strands should be kept in culture for at least 2 weeks to allow for maturation; however there is no limitation on the maximum culture duration. Cardiac tissue strands were seeded to observe the stability and reproducibility of tissue in long term culture. After seeding, brightfield images (see FIG. 39A for an example) of the tissue strands were taken every day (n=3 per group) using optical microscope (Olympus CKX41) and the diameters of the tissue strands at four distinct locations were analyzed with imageJ (see FIG. 39B for an example). Tissue strand lengths were also analyzed with same method.
Tissue contractile behavior tracing and measurement was carried out. POMac is auto-fluorescent at a wide range of wavelenths; therefore the wires were imaged with a fluorescence microscope under DAPI channel (e.g. 461 nm wavelength) to trace the bending movements of the wires. The POMac is auto-fluorescent at a wide range of wavelengths, including under FITC and Tritc channels. Images were taken at 25 frames per second (fps) (see FIG. 39C). Image sequences were analyzed with ImageJ software using tracking plugin. To calculate the forces originated from cardiac tissues, beam deflection formula with uniformly distributed load in the middle section was used here. […] The engineered cardiac tissues were paced at 2 Hz frequency. From this image sequence, contraction and relaxation time of beating can be estimated. […] Tissue stretching wires can be considered uniformly distributed Load, Wo (Load per force bearing length), which can be calculated with displacement of center point of wires in image sequence, and F can be calculated as well. […] Briefly, entire beam length was L. Section of wire with tissue wrapping around it was experiencing load. Here, the load was assumed to be evenly distributed throughout this section, and Wo was load per length. […] The distance between side of the tissue and a well wall is a, which was assumed equal for both sides. The deflection at center point was y.
Drug testing was carried out.

[4] = tested on: Hes2 hESC-derived cardiomyocyte tissue strands; conditions: Hes2 hESC-cardiomyocyte tissue strand; DI-4-ANEPPS imaging
Protocol: For human cardiac tissue strands, day 20 EBs generated as described above were incubated in collagenase type I (1 mg/ml; Sigma) and DNAse (1 mg/ml, CalBiochem) in Hank's Balanced Salt Solution (NaCl, 136 mM; NaHCO3, 4.16 mM; Na3PO4, 0.34 mM; KCl, 5.36 mM; KH2PO4, 0.44 mM; dextrose, 5.55 mM; HEPES, 5 mM) for 2 hr at 37° C. EBs were centrifuged (800 r.p.m., 5 min), incubated with trypsin (0.25%, Gibco) for 5 min at 37° C. and pipetted gently to dissociate the cells. After dissociation, cells were centrifuged (1,000 r.p.m., 5 min), counted and seeded at 0.5×10^6 cells/strand of 0.5 cm in length. This ratio was maintained for generation of longer tissue strands. […]
For optical mapping, tissue strands were incubated with a voltage sensitive dye (Di-4-ANEPPS 5 μM, Invitrogen) for 20 min at 37° C. in warm Tyrode's solution (NaCl 118 mM, KCl, 4.7 mM, CaCl2 1.25 mM, MgSO4 0.6 mM, KH2PO4 1.2 mM, NaHCO3 25 mM, glucose 6 mM; oxygenated by bubbling carbogen 95% O2, 5% CO2 for at least 20 minutes shortly before use). Dye fluorescence was recorded on a MVX-10 Olympus fluorescence microscope equipped with a high-speed CMOS camera (Ultima-L, Scimedia)^29-30. […] The fluorescence was excited using a mercury arc source (X-Cite Exacte) with green filter (Olympus U-MWIG2 filter cube). […]

[5] = tested on: endothelialized AngioChip human cardiac tissue; conditions: 10 μM perfused through built-in vasculature, within 30 min
Protocol: Cardiac drug test. On day 7 of culture, the spontaneous contractions of the cardiac tissues were recorded as bright-field videos. […] After 30 min incubation, the spontaneous contractions of the cardiac tissues were recorded again as bright-field videos. The frequency of contraction was analyzed from the recorded videos with image J. DMSO was used to dissolve the drugs. The final concentration of DMSO in the culture media was diluted to less than 0.1% (v/v).

[6] = tested on: hESC-derived cardiomyocytes (Hes2 cell line); assay: Calcium transient measurements in single cardiomyocytes dissociated from tissue strands; assay type: cell-based, human
Protocol: Calcium transient measurements were taken. Tissue strands were dissociated by incubation with collagenase and trypsin as described in detail above. The dissociated cardiomyocytes were plated onto growth factor free Matrigel (diluted 1:60 in RPMI media)-coated 25-mm microscope glass coverslips overnight. Cells were then incubated with 5 μM of fluo-4 acetoxymethyl ester (fluo-4 AM) in culture media for 2 hours at 37° C. Subsequently, cardiomyocytes were washed twice with dye-free medium and placed back into the incubator for 30 min. A laser scanning confocal microscope (Zeiss LSM 510) was used to measure the fluorescence intensity of fluo-4 AM. The coverslips containing the fluo-4 AM-loaded cardiomyocytes were moved onto a special chamber and tightly secured. Approximately 1.8-1.9 ml of culture medium was added into the chamber, which was placed on a temperature controlled-plate (37° C.) on the microscope. Fluo-4 was excited via an argon laser (488 nm) and emitted fluorescence was collected through a 505 nm emission filter. Changes in fluo-4 AM fluorescence intensity, which indicates transient fluctuation of cytosolic calcium concentration, were recorded in frame and line scan model. The images and fluorescence data were acquired through Zeiss software. The fluorescence data were analyzed with Origin 8.5 software. Fluorescence signals (F) were normalized to baseline fluorescence after loading fluo-4 AM. The rising phase of the signals was fitted by linear model while the decaying phase of the signals was fitted by ExpDecay with Offset model. Caffeine, Verapamil (Sigma) and Thapsigargin (Invitrogen) were directly added into the chamber that contained the cardiomyocytes during imaging at concentrations indicated in the figures.

hESC-CM biowires (Hes2) [7] = assay: Chronic drug exposure of biowires: quantitative RT-PCR of fetal gene program; assay type: cell-based, human; conditions: 7 days treatment: ISO 100 nM, Et-1 150 nM, AngII 200 nM; vs untreated control
Protocol: (§1) After preculture for 7 days, biowires were randomly transferred to 6-well plates and cultured in StemPro-34 media in the absence or presence of Isoproterenol (100 nM), Angiotensin II (200 nM [17]) or Endothelin-1 (150 nM)(Sigma) for 7 days. This protocol was chosen to replicate the chronic treatment of mice as described. […] Isolated single cells were seeded on Matrigel-coated glass cover slips before cell area and calcium transient measurements were performed.
Quantitative RT-PCR. RT-PCR was performed as previously described. Total RNA was prepared with the High Pure RNA Isolation Kit (Roche) and treated with RNase-free DNase (Roche). RNA was reverse transcribed into cDNA using random hexamers and Oligo (dT) with SuperScript VILO (Invitrogen). RT-qPCR was performed on a LightCycler 480 (Roche) using LightCycler 480 SYBR Green I Master (Roche). Expression levels were normalized to the housekeeping genes TATA box binding protein (TBP) or Glyceraldehyde 3-phosphate dehydrogenase (GAPDH).

hESC-CM biowires (Hes2) [8] = assay: Chronic drug exposure: ELISA of soluble BNP in conditioned media; assay type: cell-based, human
Protocol: as §1, with “performed. ELISA. Quantification of soluble BNP from the conditioned media was performed using commercially available ELISA kits.” for “performed.”

[9] = tested on: Hes2 hESC derived cardiomyocytes; assay type: cell-based, human; conditions: single cells dissociated at end of 7 days treatment, cardiac troponin T staining
Protocol: as §1

With `CC[C@H](C)[C@H](NC(=O)[C@H](Cc1ccc(O)cc1)NC(=O)[C@@H](NC(=O)[C@H](CCCNC(=N)N)NC(=O)[C@@H](N)CC(=O)O)C(C)C)C(=O)N[C@@H](Cc1cnc[nH]1)C(=O)N1CCC[C@H]1C(=O)N[C@@H](Cc1ccccc1)C(=O)O` [AngII, angiotensin II] the “contractile apparatus (transmission electron microscopy)” value (hESC-CM biowires (Hes2) [1]) was “significant absence of distinct Z-disks and the lack of a defined sarcomere structure” and the force of contraction [2] was “significantly reduced force of contraction”.
`Cc1cccc(CCN2CCC(C(=O)c3ccc(NS(C)(=O)=O)cc3)CC2)n1` [E4301] was tested, and the “response of human cardiac tissues to well-known drugs” value [3] was “responded appropriately”.
In the case of `CNC[C@H](O)c1ccc(O)c(O)c1` [Epinephrine, epinephrine], the spontaneous beating frequency [4] is reported as “increasing spontaneous beating frequency” and the “chronotropic response (frequency of spontaneous contraction)” value [5] is reported as “positive chronotropic response”.
With `NC[C@H](O)c1ccc(O)c(O)c1` [Norepinephrine] the beating frequency ([3]; 10 μM) was “significant increased beating frequency” and the “response of human cardiac tissues to well-known drugs” value [3] was “responded appropriately”.
In the case of `Cn1c(=O)c2c(ncn2C)n(C)c1=O` [caffeine], the “effect of caffeine added post blockage of L-type Ca2+ channels” value ([6]; cells from 6 Hz tissue strands, after verapamil or nifedipine) is reported as “Ca^2+ release into the cytosol”, the “Ca2+ transient amplitude intensity in response to caffeine” value ([6]; electrically stimulated cells vs non-stimulated controls, caffeine 5 mM) is reported as “significantly higher amplitude intensity” and the “response of cytosolic Ca2+ to caffeine” value ([6]; single cells from electrically stimulated tissue strands, 3 and 6 Hz conditions) is reported as “inducing an increase in cytosolic Ca^2+”. For the same compound, the “response of cytosolic Ca2+ to caffeine” value ([6]; single cells from non-stimulated control tissue strands) was “none of the hESC-cardiomyocytes in non-stimulated controls were responsive”.
With `C[C@H]1O[C@@H](O[C@H]2[C@@H](O)C[C@H](O[C@H]3[C@@H](O)C[C@H](O[C@H]4CC[C@@]5(C)[C@H](CC[C@@H]6[C@@H]5C[C@@H](O)[C@]5(C)[C@@H](C7=CC(=O)OC7)CC[C@]65O)C4)O[C@@H]3C)O[C@@H]2C)C[C@H](O)[C@@H]1O` [digoxin] the “chronotropic response (frequency of spontaneous contraction)” value [5] was “negative chronotropic response”.
For `C/C=C(/C)C(=O)O[C@H]1C(C)=C2[C@H]([C@@H]1OC(=O)CCCCCCC)[C@@](C)(OC(C)=O)C[C@H](OC(=O)CCC)[C@@]1(O)[C@H]2OC(=O)[C@@]1(C)O` [thapsigargin], the “calcium transients after blockage of SERCA” value ([6]; cells from 6 Hz tissue strands) was “cessation of calcium transients with time”.
`COc1ccc(CCN(C)CCCC(C#N)(c2ccc(OC)c(OC)c2)C(C)C)cc1OC` (stereo not drawn) [verapamil] was tested, and the “Ca2+ transients after blockage of L-type Ca2+ channels” value ([6]; cells from 6 Hz tissue strands) was “cessation in Ca^2+ transients”.
endothelin-1 [Et-1] was tested, and the “contractile apparatus (transmission electron microscopy)” value (hESC-CM biowires (Hes2) [1]) was “significant absence of distinct Z-disks and the lack of a defined sarcomere structure”, the “ANF and BNP gene expression (fetal gene program)” value (hESC-CM biowires (Hes2) [7]) was “no changes in gene expression” and the “BNP in the conditioned media” value (hESC-CM biowires (Hes2) [8]; chronic treatment) was “BNP can also be found in the conditioned media”. For the same compound, the “increase in the secretion of BNP” value (hESC-CM biowires (Hes2) [8]; day 2 post-treatment, media conditioned for 48 h) was 5 fold, the “increase of BNP in the media” value (hESC-CM biowires (Hes2) [8]; day 7, media conditioned for 24 h) was 7 fold and the “increase in cell size” value [9] was 100%. For the same compound, the force of contraction [2] was “significantly reduced force of contraction”.
